Data: patent US9156796B2, “Benzoimidazole-carboxylic acid amide derivatives as APJ receptor modulators” (SANOFI, priority 2013, dated 2015)

target: T1, human apelin receptor (Homo sapiens, UniProt P35414); assay: Determination of agonism on the human apelin receptor by a calcium fluorescence assay (FLIPR); format: cell-based; conditions: HEK293 cells stably transfected with human apelin receptor and Giaq protein, Fluo-4 calcium fluorescence, read-out: EC50 (APJ agonism)
T1 construct: expressed in transfected cells
T1 sequence (P35414 1-380): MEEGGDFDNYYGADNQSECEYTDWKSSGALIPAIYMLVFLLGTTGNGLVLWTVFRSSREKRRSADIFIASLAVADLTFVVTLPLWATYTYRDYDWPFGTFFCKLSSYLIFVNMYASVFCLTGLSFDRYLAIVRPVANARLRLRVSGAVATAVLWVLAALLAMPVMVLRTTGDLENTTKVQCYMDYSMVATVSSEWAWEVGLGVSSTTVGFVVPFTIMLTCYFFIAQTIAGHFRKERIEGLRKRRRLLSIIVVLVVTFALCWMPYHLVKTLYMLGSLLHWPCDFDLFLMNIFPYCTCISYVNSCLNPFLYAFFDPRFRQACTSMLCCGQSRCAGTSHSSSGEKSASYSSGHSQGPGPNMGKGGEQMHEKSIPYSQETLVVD
Summary of the method: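 HEK293 cells stably co-expressing human apelin receptor and promiscuous Giaq, loaded 1 h at 37 °C with Fluo-4 (4 μM) in probenecid-containing Hepes buffer, pH 7.4. Compounds, at least 7 concentrations in triplicate, added in FLIPR Tetra; peak calcium fluorescence normalized to 1 μM apelin-13 as 100% to derive EC50.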

SMILES | EC50 [nM]
CCC(C)Cn1c(Cc2ccsc2)nc2cc(C(=O)N[C@@H](CC(C)C)C(=O)O)ccc21 (stereo partly drawn) [Example 137, (S)-4-Methyl-2-{[1-(2-methyl-butyl)-2-thiophen-3-ylmethyl-1H-benzoimidazole-5-carbonyl]-amino}-pentanoic acid] | 9500
CC(C)C[C@H](NC(=O)c1ccc2c(c1)nc(Cc1ccoc1)n2C1CCCCC1)C(=O)O [Example 138, (S)-2-[(1-Cyclohexyl-2-furan-3-ylmethyl-1H-benzoimidazole-5-carbonyl)-amino]-4-methyl-pentanoic acid] | 2930
CC(C)C[C@H](NC(=O)c1ccc2c(c1)nc(Cc1ccsc1)n2C1CCCCC1C)C(=O)O (stereo partly drawn) [Example 139, (S)-4-Methyl-2-{[1-(2-methyl-cyclohexyl)-2-thiophen-3-ylmethyl-1H-benzoimidazole-5-carbonyl]-amino}-pentanoic acid] | 285
CCC(C)n1c(Cc2cccs2)nc2cc(C(=O)N[C@@H](CC3CCCCC3)C(=O)O)ccc21 (stereo partly drawn) [Example 140, (S)-2-[(1-sec-Butyl-2-thiophen-2-ylmethyl-1H-benzoimidazole-5-carbonyl)-amino]-3-cyclohexyl-propionic acid] | 3800
CCC(CC)n1c(CC2CCCCC2)nc2cc(C(=O)N[C@@H](CC3CCCCC3)C(=O)O)ccc21 [Example 141, (S)-3-Cyclohexyl-2-{[2-cyclohexylmethyl-1-(1-ethyl-propyl)-1H-benzoimidazole-5-carbonyl]-amino}-propionic acid] | 23000
CCC(C)n1c(Cc2ccsc2)nc2cc(C(=O)N[C@@H](CC(C)C)C(=O)O)ccc21 (stereo partly drawn) [Example 142, (S)-2-[(1-sec-Butyl-2-thiophen-3-ylmethyl-1H-benzoimidazole-5-carbonyl)-amino]-4-methyl-pentanoic acid] | 12000
CC(C)C[C@H](NC(=O)c1ccc2c(c1)nc(Cc1ccccc1)n2C1CCCCC1C)C(=O)O (stereo partly drawn) [Example 143, (S)-2-{[2-Benzyl-1-(2-methyl-cyclohexyl)-1H-benzoimidazole-5-carbonyl]-amino}-4-methyl-pentanoic acid] | 2450
Cc1ccc(Cc2nc3cc(C(=O)N[C@@H](CC(C)C)C(=O)O)ccc3n2C2CCCCC2C)s1 (stereo partly drawn) [Example 144, (S)-4-Methyl-2-{[1-(2-methyl-cyclohexyl)-2-(5-methyl-thiophen-2-ylmethyl)-1H-benzoimidazole-5-carbonyl]-amino}-pentanoic acid] | 23000
CCC(C)Cn1c(Cc2cccs2)nc2cc(C(=O)N[C@@H](CC3CCCCC3)C(=O)O)ccc21 (stereo partly drawn) [Example 145, (S)-3-Cyclohexyl-2-{[1-(2-methyl-butyl)-2-thiophen-2-ylmethyl-1H-benzoimidazole-5-carbonyl]-amino}-propionic acid] | 18000
CC(C)C[C@H](NC(=O)c1ccc2c(c1)nc(Cc1cccs1)n2C1CCCCC1C)C(=O)O (stereo partly drawn) [Example 146, (S)-4-Methyl-2-{[1-(2-methyl-cyclohexyl)-2-thiophen-2-ylmethyl-1H-benzoimidazole-5-carbonyl]-amino}-pentanoic acid] | 328
CCC(C)n1c(Cc2cccs2)nc2cc(C(=O)N[C@@H](CC(C)C)C(=O)O)ccc21 (stereo partly drawn) [Example 147, (S)-2-[(1-sec-Butyl-2-thiophen-2-ylmethyl-1H-benzoimidazole-5-carbonyl)-amino]-4-methyl-pentanoic acid] | 4550
CC(C)C[C@H](NC(=O)c1ccc2c(c1)nc(Cc1ccccc1)n2C1CCCCC1)C(=O)O [Example 148, (S)-2-[(2-Benzyl-1-cyclohexyl-1H-benzoimidazole-5-carbonyl)-amino]-4-methyl-pentanoic acid] | 15000
CCC(C)n1c(CC2CCCC2)nc2cc(C(=O)N[C@@H](CC(C)C)C(=O)O)ccc21 (stereo partly drawn) [Example 149, (S)-2-[(1-sec-Butyl-2-cyclopentylmethyl-1H-benzoimidazole-5-carbonyl)-amino]-4-methyl-pentanoic acid] | 27000
CC(C)C[C@H](NC(=O)c1ccc2c(c1)nc(CC1CCCC1)n2C1CCCCC1C)C(=O)O (stereo partly drawn) [Example 150, (S)-2-{[2-Cyclopentylmethyl-1-(2-methyl-cyclohexyl)-1H-benzoimidazole-5-carbonyl]-amino}-4-methyl-pentanoic acid] | 2800
CCC(CC)n1c(CC2CCCO2)nc2cc(C(=O)N[C@@H](CC3CCCCC3)C(=O)O)ccc21 (stereo partly drawn) [Example 151, (S)-3-Cyclohexyl-2-{[1-(1-ethyl-propyl)-2-(tetrahydro-furan-2-ylmethyl)-1H-benzoimidazole-5-carbonyl]-amino}-propionic acid] | 890
CC(C)C[C@H](NC(=O)c1ccc2c(c1)nc(Cc1ccsc1)n2C1CCCCC1)C(=O)O [Example 152, (S)-2-[(1-Cyclohexyl-2-thiophen-3-ylmethyl-1H-benzoimidazole-5-carbonyl)-amino]-4-methyl-pentanoic acid] | 3950

Second part, the compound after the results:

EC50 [nM] | SMILES
350 | CCC(CC)n1c(Cc2cccs2)nc2cc(C(=O)N[C@H](C(=O)O)[C@H](C)CC)ccc21 [Example 153, (2S,3R)-2-{[1-(1-Ethyl-propyl)-2-thiophen-2-ylmethyl-1H-benzoimidazole-5-carbonyl]-amino}-3-methyl-pentanoic acid]
270 | CCC(CC)n1c(Cc2ccoc2)nc2cc(C(=O)N[C@H](CC(=O)O)CC(C)C)ccc21 [Example 154, (S)-3-{[1-(1-Ethyl-propyl)-2-furan-3-ylmethyl-1H-benzoimidazole-5-carbonyl]-amino}-5-methyl-hexanoic acid]
500 | CCCC(CC(=O)O)NC(=O)c1ccc2c(c1)nc(Cc1cccs1)n2C(CC)CC (stereo not shown) [Example 155, 3-{[1-(1-Ethyl-propyl)-2-thiophen-2-ylmethyl-1H-benzoimidazole-5-carbonyl]-amino}-hexanoic acid]
210 | CCC(CC)n1c(Cc2ccsc2)nc2cc(C(=O)N[C@H](CC(=O)O)CC(C)C)ccc21 [Example 156, (S)-3-{[1-(1-Ethyl-propyl)-2-thiophen-3-ylmethyl-1H-benzoimidazole-5-carbonyl]-amino}-5-methyl-hexanoic acid]
10000 | CCC(CC)n1c(Cc2ccccc2)nc2cc(C(=O)N[C@H](CC(=O)O)CC(C)C)ccc21 [Example 157, (S)-3-{[2-Benzyl-1-(1-ethyl-propyl)-1H-benzoimidazole-5-carbonyl]-amino}-5-methyl-hexanoic acid]
515 | CCC(CC)n1c(CC2CCCC2)nc2cc(C(=O)N[C@H](CC(=O)O)CC(C)C)ccc21 [Example 158, (S)-3-{[2-Cyclopentylmethyl-1-(1-ethyl-propyl)-1H-benzoimidazole-5-carbonyl]-amino}-5-methyl-hexanoic acid]
15000 | CCC(C)Cn1c(CC2CCCC2)nc2cc(C(=O)N[C@H](CC(=O)O)CC(C)C)ccc21 (stereo partly drawn) [Example 159, (S)-3-{[2-Cyclopentylmethyl-1-(2-methyl-butyl)-1H-benzoimidazole-5-carbonyl]-amino}-5-methyl-hexanoic acid]
820 | CCC(CC)n1c(CC2CCCO2)nc2cc(C(=O)N[C@H](CC(=O)O)CC(C)C)ccc21 (stereo partly drawn) [Example 160, (S)-3-{[1-(1-Ethyl-propyl)-2-(tetrahydro-furan-2-ylmethyl)-1H-benzoimidazole-5-carbonyl]-amino}-5-methyl-hexanoic acid]
2300 | CCC(CC)n1c(Cc2cccs2)nc2cc(C(=O)N[C@H](CC(=O)O)C(C)C)ccc21 [Example 161, (R)-3-{[1-(1-Ethyl-propyl)-2-thiophen-2-ylmethyl-1H-benzoimidazole-5-carbonyl]-amino}-4-methyl-pentanoic acid]
1100 | CCC(CC)n1c(Cc2cccs2)nc2cc(C(=O)N[C@H](CCC(=O)O)C(C)C)ccc21 [Example 162, (R)-4-{[1-(1-Ethyl-propyl)-2-thiophen-2-ylmethyl-1H-benzoimidazole-5-carbonyl]-amino}-5-methyl-hexanoic acid]
51 | CCC(CC)n1c(Cc2cccs2)nc2cc(C(=O)N[C@H](CCC(=O)O)CC(C)C)ccc21 [Example 163, (R)-4-{[1-(1-Ethyl-propyl)-2-thiophen-2-ylmethyl-1H-benzoimidazole-5-carbonyl]-amino}-6-methyl-heptanoic acid]
6350 | CC(C)C[C@H](NC(=O)c1ccc2c(c1)nc(Cc1cccs1)n2C(C(C)C)C(C)C)C(=O)O [Example 164, (S)-2-{[1-(1-Isopropyl-2-methyl-propyl)-2-thiophen-2-ylmethyl-1H-benzoimidazole-5-carbonyl]-amino}-4-methyl-pentanoic acid]
1010 | CC(C)C[C@H](NC(=O)c1ccc2c(c1)nc(Cc1cccs1)n2-c1ccccc1Cl)C(=O)O [Example 165, (S)-2-{[1-(2-Chloro-phenyl)-2-thiophen-2-ylmethyl-1H-benzoimidazole-5-carbonyl]-amino}-4-methyl-pentanoic acid]
3040 | CC(C)CC(C)n1c(Cc2cccs2)nc2cc(C(=O)N[C@@H](CC(C)C)C(=O)O)ccc21 (stereo partly drawn) [Example 166, (S)-2-{[1-(1,3-Dimethyl-butyl)-2-thiophen-2-ylmethyl-1H-benzoimidazole-5-carbonyl]-amino}-4-methyl-pentanoic acid]
7550 | CCC(CC)n1c(CC2CCCC2)nc2cc(C(=O)N[C@H](CO)CC3CCCCC3)ccc21 [Example 167, 2-Cyclopentylmethyl-1-(1-ethyl-propyl)-1H-benzoimidazole-5-carboxylic acid ((S)-1-cyclohexylmethyl-2-hydroxy-ethyl)-amide]
